The record followed here is PMC3210832 (Journal of Pharmaceutical Sciences, 2011).

One series addresses HIV-1 protease (Human immunodeficiency virus type 1 group M subtype B, UniProt P04585). Briefly: HIV-1 protease inhibition, fluorometric assay. The series is classed as biochemical.
Another series has as its system HIV-1 in MT4 cells. Description: In vitro anti-HIV activity in MT4 cells, colorimetric XTT assay. The class given is cell-based. The following applies: Human immunodeficiency virus 1, MT4. (Tetrazolium dyes change colour on reduction, which living cells bring about.)
The next series is described as follows: Transport. The following applies: rat, pH 7.4.
Series [1] in a line: Bidirectional transport across Caco-2 cell monolayers. As to conditions: human, Caco-2, pH 7.4. In general terms: Passage across Caco-2 layers is used to estimate intestinal permeability.

The compound `CNC(=O)[C@@H](NC(=O)[C@](O)(Cc1ccccc1)CN(Cc1ccc(-c2ccccn2)cc1)NC(=O)[C@@H](NC(=O)OC)C(C)(C)C)C(C)(C)C` [Compound 11, methyl (S)-1-(2-((S)-2-benzyl-3-((S)-3,3-dimethyl-1-(methylamino)-1-oxobutan-2-ylamino)-2-hydroxy-3-oxopropyl)-2-(4-(pyridin-2-yl)benzyl)hydrazinyl)-3,3-dimethyl-1-oxobutan-2-ylcarbamate] had a Ki at HIV-1 protease of 23 nM. The concentration giving a half-maximal response (EC50) in the series on HIV-1 in MT4 cells was greater than 10000 nM. Besides, in “Transport”, the apparent permeability coefficient (Papp) is 3.8 ×10⁻⁶ cm/s and the Papp at 90 min is less than 8 ×10⁻⁶ cm/s. For the same compound, in series [1], the Papp A→B amounted to 3.4 ± 0.4 ×10⁻⁶ cm/s, the Papp B→A stood at 26 ± 9.1 ×10⁻⁶ cm/s and the efflux ratio amounted to 7.6.

Take `CC(C)(C)NC(=O)[C@@H]1CN(Cc2cccnc2)CCN1C[C@@H](O)C[C@@H](Cc1ccccc1)C(=O)N[C@H]1c2ccccc2C[C@H]1O` [Indinavir, reference compound]: the response in the series on HIV-1 in MT4 cells was half-maximal at 41 nM (EC50).

For orientation: Ki means the equilibrium dissociation constant of an inhibitor or competing ligand from its target. A high value points to lower affinity. Broadly, the EC50 is the concentration needed to bring the measured effect to its halfway point. Broadly, the Papp is a coefficient for how fast a substance crosses the barrier. Low readings indicate poor permeation, high ones ready permeation. A word on the Papp A→B: it is how fast a substance crosses the layer from the apical side. The low end stands for poor permeation, the high end for ready permeation. Usually Papp B→A stands for the apparent permeability from the basolateral to the apical side of a cell layer. One may read the efflux ratio as a quotient of directional permeabilities that is used to spot active efflux.
